Measurements: PubChem BioAssay AID2060607 (Molecular Pharmacology Branch, DTP, NCI, 2025)

Test system: 876862-298-R-J1-PDC complex spheroids, viability % test/control
Assay: Anticancer human tumor 876862-298-R-J1-PDC patient-derived endometrial carcinoma cell line growth inhibition [CLK]
Conditions: for IC50: curve of first compound; for viability, T/C: stronger effect = lower value
Method in brief: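 Multi-cell-type spheroids combined patient-derived tumor cells with HUVEC endothelial cells and human mesenchymal stem cells. Paired agents were dosed in half-log steps down from about clinical Cmax, or from 10 microM where Cmax was unknown.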

[1] = second compound 0.0316 µM, first compound 0.0316 µM
[2] = second compound 0.0316 µM, first compound 0.1 µM
[3] = second compound 0.0316 µM, first compound 0.316 µM
[4] = second compound 0.0316 µM, first compound 1 µM
[5] = second compound 0.0316 µM, first compound 3.16 µM
[6] = second compound 0.0316 µM, first compound 10 µM
[7] = second compound 0.1 µM, first compound 0.0316 µM
[8] = second compound 0.1 µM, first compound 0.1 µM
[9] = second compound 0.1 µM, first compound 0.316 µM
[10] = second compound 0.1 µM, first compound 1 µM
[11] = second compound 0.1 µM, first compound 3.16 µM
[12] = second compound 0.1 µM, first compound 10 µM
[13] = second compound 0.316 µM, first compound 0.0316 µM
[14] = second compound 0.316 µM, first compound 0.1 µM
[15] = second compound 0.316 µM, first compound 0.316 µM
[16] = second compound 0.316 µM, first compound 1 µM
[17] = second compound 0.316 µM, first compound 3.16 µM
[18] = second compound 0.316 µM, first compound 10 µM
[19] = second compound 1 µM, first compound 0.0316 µM
[20] = second compound 1 µM, first compound 0.1 µM
[21] = second compound 1 µM, first compound 0.316 µM
[22] = second compound 1 µM, first compound 1 µM
[23] = second compound 1 µM, first compound 3.16 µM
[24] = second compound 1 µM, first compound 10 µM
[25] = second compound 3.16 µM, first compound 0.0316 µM
[26] = second compound 3.16 µM, first compound 0.1 µM
[27] = second compound 3.16 µM, first compound 0.316 µM
[28] = second compound 3.16 µM, first compound 1 µM
[29] = second compound 3.16 µM, first compound 3.16 µM
[30] = second compound 3.16 µM, first compound 10 µM
[31] = second compound 10 µM, first compound 0.0316 µM
[32] = second compound 10 µM, first compound 0.1 µM
[33] = second compound 10 µM, first compound 0.316 µM
[34] = second compound 10 µM, first compound 1 µM
[35] = second compound 10 µM, first compound 3.16 µM
[36] = second compound 10 µM, first compound 10 µM
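Further: spheroids exposed to drugs for 7 days before readout.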
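Wherever viability, T/C is given: 100% = DMSO vehicle control wells.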

Compound: C#Cc1c(F)ccc2cc(O)cc(-c3ncc4c(N5CC6CCC(C5)N6)nc(OCC56CCCN5CC(F)C6)nc4c3F)c12 (centres undefined) + CNC(=O)c1ccc(Nc2nc(OC3CCCC3)c3c(-c4ccc5nc(C)oc5c4)c[nH]c3n2)c(OC)c1
- IC50 (second compound 0.0316 µM): > 10000 nM
- IC50 (second compound 0.1 µM): < 31.6 nM
- IC50 (second compound 0.316 µM): < 31.6 nM
- IC50 (second compound 1 µM): < 31.6 nM
- IC50 (second compound 3.16 µM): < 31.6 nM
- IC50 (second compound 10 µM): < 31.6 nM
- viability, T/C [1]: 65.6%
- viability, T/C [2]: 88.8%
- viability, T/C [3]: 71.9%
- viability, T/C [4]: 75.3%
- viability, T/C [5]: 76.3%
- viability, T/C [6]: 71.4%
- viability, T/C [7]: 46.5%
- viability, T/C [8]: 52.8%
- viability, T/C [9]: 42.7%
- viability, T/C [10]: 46.6%
- viability, T/C [11]: 49.9%
- viability, T/C [12]: 38.2%
- viability, T/C [13]: 38%
- viability, T/C [14]: 40.4%
- viability, T/C [15]: 38.9%
- viability, T/C [16]: 41.7%
- viability, T/C [17]: 39.6%
- viability, T/C [18]: 34.4%
- viability, T/C [19]: 33.5%
- viability, T/C [20]: 34.9%
- viability, T/C [21]: 27.7%
- viability, T/C [22]: 30.5%
- viability, T/C [23]: 32.9%
- viability, T/C [24]: 26.2%
- viability, T/C [25]: 23.6%
- viability, T/C [26]: 22.1%
- viability, T/C [27]: 22.8%
- viability, T/C [28]: 21.7%
- viability, T/C [29]: 24.9%
- viability, T/C [30]: 20.2%
- viability, T/C [31]: 20.1%
- viability, T/C [32]: 20.4%
- viability, T/C [33]: 21.4%
- viability, T/C [34]: 21.6%
- viability, T/C [35]: 20.3%
- viability, T/C [36]: 19.4%

Compound: C=C(F)C(=O)N1CCN(c2nc(OCC3CCCN3C)nc3c2CCN(c2cccc4cccc(Cl)c24)C3)CC1CC#N (centres undefined) + CNC(=O)c1ccc(Nc2nc(OC3CCCC3)c3c(-c4ccc5nc(C)oc5c4)c[nH]c3n2)c(OC)c1
- IC50 (second compound 0.0316 µM): 4840 nM
- IC50 (second compound 0.1 µM): < 31.6 nM
- IC50 (second compound 0.316 µM): < 31.6 nM
- IC50 (second compound 1 µM): < 31.6 nM
- IC50 (second compound 3.16 µM): < 31.6 nM
- IC50 (second compound 10 µM): < 31.6 nM
- viability, T/C [1]: 61.2%
- viability, T/C [2]: 84.6%
- viability, T/C [3]: 74.5%
- viability, T/C [4]: 84.6%
- viability, T/C [5]: 87.3%
- viability, T/C [6]: 1.29%
- viability, T/C [7]: 47.9%
- viability, T/C [8]: 49.9%
- viability, T/C [9]: 47.5%
- viability, T/C [10]: 48.3%
- viability, T/C [11]: 38.8%
- viability, T/C [12]: 2.57%
- viability, T/C [13]: 42.1%
- viability, T/C [14]: 39.7%
- viability, T/C [15]: 43.1%
- viability, T/C [16]: 39.1%
- viability, T/C [17]: 31.5%
- viability, T/C [18]: 1.59%
- viability, T/C [19]: 33.1%
- viability, T/C [20]: 33.1%
- viability, T/C [21]: 32.6%
- viability, T/C [22]: 27.1%
- viability, T/C [23]: 27.6%
- viability, T/C [24]: 0.79%
- viability, T/C [25]: 22.3%
- viability, T/C [26]: 24.6%
- viability, T/C [27]: 22.1%
- viability, T/C [28]: 21.8%
- viability, T/C [29]: 21.8%
- viability, T/C [30]: 0.16%
- viability, T/C [31]: 23.3%
- viability, T/C [32]: 22.4%
- viability, T/C [33]: 19.5%
- viability, T/C [34]: 21.6%
- viability, T/C [35]: 18.6%
- viability, T/C [36]: 0.21%
